Data published in patent US20210361578A1, “MEK1/2 INHIBITOR-LOADED MICROPARTICLE FORMULATION” (University of Iowa Research Foundation, priority 2020, published 2021).
Entries after “also recorded” stand apart in the source; their conditions may differ.

How the values were obtained:
[1] = In vitro drug release of PD98059-loaded microparticles (Examples 1/3, centrifugation and medium replacement); format: physicochemical; details: PD98059 powder; DPBS with 0.4% w/v Tween 80, 37° C.
Protocol: A weighed amount of the microparticles was suspended in 5 ml of the release medium (Dulbecco's phosphate buffered saline, DPBS, Life Science, Waltham, Mass.) that contains 0.4% w/v Tween 80 at an amount equivalent to 0.065 mg microparticles in 50 ml tube (n=3). The tubes were placed in an orbital shaker (New Brunswick Scientific, Edison, N.J.) operating at 300 rpm and 37° C. At pre-determined time points, the tube was centrifuged (1000×g for 5 min) and the whole volume of the release medium (5 ml) was removed and replaced completely with fresh medium in which the pellet was re-suspended. The concentration of PD98059 was measured in the samples using the HPLC method described below. The standard curve range was 0.125-10 μg/ml, and the r^2 value was 0.9998.
An Agilent Infinity 1100 HPLC (Santa Clara, Calif.) was used for to analyze PD98059 content and release of the microparticles. […] The flow rate used was 1 ml/min at room temperature, and the wavelength at which PD98059 was detected at 275 nm.
A weighed amount of the microparticles was suspended in 5 ml of the release medium (Dulbecco's phosphate buffered saline, DPBS, Life Science, Waltham, Mass.) that contains 0.4% w/v Tween 80 at an amount equivalent to 0.065 mg microparticles in 50 ml tube (n=3). […] The concentration of PD98059 was measured in the samples using the HPLC method described below. […]

[2] = Pharmacokinetics and organ levels of PD98059 following IV injection in healthy rats; format: in vivo
Protocol: 1: Pharmacokinetics of PD98059. Rats were anaesthetized using urethane and a canula was inserted in the femoral vein. A solution of PD98059 dissolved in 10% Tween 80 in sterile 1× DPBS at a concentration of 0.5 mg/ml (total volume 2 ml) was administered slowly by intravenous infusion. After 5, 15, 30, 60, 180, and 360 minutes, blood samples were withdrawn from rats. Major organs (liver, kidney, brain, and heart) were collected from rats after 1 and 3 hours (n=3/time point).
All blood samples were collected into 4 ml BD Vacutainer® blood collection tubes (K2-EDTA, Becton, Dickinson, and Company, Franklin Lakes, N.J.). Plasma samples were collected by centrifugation (3,300×g, 15 min), and frozen at −80° C. until analyzed. Plasma samples were thawed on ice, and a volume of 100 μl of plasma was transferred to a 15 ml tube, and spiked with 15 μl of the internal standard (IS) solution (10 μg/ml of 7-hydroxyfiavone in methanol). Collected organs were rinsed in PBS, then frozen at −80° C. For organs, a portion of each organ (200-400 mg) was accurately weighed and homogenized (Fisher Brand Bead Mill 4 Homogenizer, Hampton, N.H.) in 250 μl of 1× DPBS using 20-25 2.5 mm ceramic beads per sample, and spiked with 15 μl of the internal standard (IS) solution. One ml of cold acetonitrile was added to 100 μl of plasma samples or 400 μl of the tissue homogenate and vortexed for 1 min. The samples were kept on ice for 15 min to precipitate the proteins, then the tubes were centrifuged (4° C., 3,300×g, 10 min) and the supernatant was collected, and evaporated under nitrogen stream.
In the case of protocols 1 and 2, the residue in each tube was then dissolved in the mobile phase (described in the HPLC section below), centrifuged (12,000×g, 5 min), and the supernatant was injected in the HPLC and analyzed by the method described below. A standard curve was prepared using plasma and tissues collected from naive rats. These plasma or tissue homogenate samples were spiked with 15 μl of the IS solution as mentioned above, in addition to 15 μl of standard solutions of PD98059 in methanol at different concentrations. Pharmacokinetic parameters were calculated using PK Solver.
An Agilent HPLC workstation was used for sample analysis (Agilent Infinity 1100, Santa Clara, Calif.) that consisted of an Agilent quaternary pump, automatic injection port, and Agilent diode array detector (Agilent Corporation, Santa Clara, Calif.). A RP-C18 column was used for analysis (Waters Symmetry, 5 μm pore size, 4.6 mm×150 mm, Milford, Mass.). The mobile phase consisted of methanol: water 70:30 with 0.1% v/v trifluoroacetic acid, and the flow rate was 1 ml/min at room temperature. The detection wavelength was set to 275 nm.

[3] = system: PVN neuronal excitation and sympathetic nerve activity; details: cited from earlier work
[4] = system: plasma levels of norepinephrine; PVN p-ERK1/2; details: HF rats, cited from earlier work
[5] = system: MEK; details: Dudley et al.; cited from earlier work

COc1cccc(-c2cc(=O)c3ccccc3o2)c1N [PD98059]
time for 80% of the unencapsulated drug to dissolve in the release medium [1]: 24 h
AUC0-t ([2]; IV injection of 1 mg of PD98059 in solution, non-compartmental analysis): 2378.7 ng·h/mL
brain PD98059 level at 1 hour ([2]; healthy rats, IV 1 mg): approximately 410 ng/g
brain PD98059 level at 3 hours ([2]; healthy rats, IV 1 mg): ~76 ng/g
drug levels in major organs (liver, kidney, brain, heart) ([2]; healthy rats, IV 1 mg, 1 and 3 hours): drug levels in the liver and kidney were comparatively higher than those in the brain and heart
crossing of the blood brain barrier ([2]; rats): a significant portion of the drug crossed the blood brain barrier; also recorded: found to cross the blood brain barrier
elimination half-life ([2]; rats): above 1 hour
elimination half-life in plasma ([2]; rats, IV injection of PD98059 solution, 1 mg): 73 min
pharmacokinetic model that fits the data ([2]; rats, IV, PK Solver): 2-compartment model
heart rate ([3]; HF rats, 1-h ICV infusion, compared to SHAM or untreated animals): significantly decreased
PVN neuronal excitation and (renal) sympathetic nerve activity ([3]; heart failure rats, 1-hour ICV infusion): decreased; also recorded: inhibited
plasma norepinephrine levels ([4]; ICV infusion for 4 weeks): significant reduction; also recorded: reduced; also recorded: normalized
PVN p-ERK1/2 ([4]; long term ICV infusion): successfully decreased
in vitro activity of MEK once PD98059 was removed from the medium [5]: fully and instantaneously restored
